Reference: PMC9170106, “Pre-clinical evaluation of LASSBio-1491: From in vitro pharmacokinetic study to in vivo leishmanicidal activity” (PLoS ONE, 2022)
Values belong to the compound of their own block, whether it stands above or below them.

How the values were obtained:
PAMPA-GIT permeability = settings: for Classification / Fa experimental: GIT-PAMPA; for Fa experimental: absorbed fraction
From the text: (§1) The parallel artificial membrane permeability assay uses 96-well plate in a “sandwich” type system, where one plate overlaps the other (PAMPA). […] The lipid mixture that impregnates the PVDF filter has a different constitution for the permeability tests for the blood-brain barrier (Brain lipid from pig extract in dodecane) and gastro-intestinal tract (L-α soy phosphatidylcholine in dodecane). In the PAMPA BBB and TGI assays, the optical density values obtained in the reading at each selected wavelength, for each of the compounds were analyzed in comparison with the values of several controls. In the case of the BBB, these values were used to elaborate an equation and determine the permeability coefficient (Pe), using a previously elaborated spreadsheet, and, for the TGI, these values were used to determine the absorbed fraction (Fa%), both using the Excel® program.

[1] = GIT-PAMPA, ref literature, cited from earlier work; for Fa literature: absorbed fraction
PAMPA-BBB permeability = settings: for Classification: PAMPA-BBB
From the text: as §1

spleen cells = experiment: Cytotoxicity against spleen cells (propidium iodide); settings: Mus musculus, 24 h
Description: To carry out the suspension preparation of spleen cells, BALB/c mice were euthanized, and an incision was made to remove the spleen. The spleens were macerated using the end of the plungers from a 1 mL syringe in a 70 μm strainer placed in a Petri dish containing RPMI medium. […] After incubation for 4 min at room temperature, the cells were washed with RPMI medium. Subsequently, samples from three animals were pooled and the cell suspension was passed through a 40 μm strainer. Cells were counted in a Neubauer chamber and splenocytes were plated at a concentration of 5 x 10^5 cells per well in a 96-well culture plate. […] Moreover, spleen cells were also cultured just with medium (free of compounds or vehicle) or with DMSO 0.1%. […] After, the propidium iodide incorporation was performed according to the instructions of the Propidium Iodide Kit (Sigma, Copenhagen, Denmark). The splenocytes were analyzed in a FACS Canto II flow cytometer. The data files were saved using FACS Diva software and data analysis was done using Flow Jo software. […] Data obtained from experiments were expressed as the mean ± standard error of the mean (S.E.M.) of spleen died cells and statistical differences between the treated and the vehicle groups of experiments were evaluated by ANOVA and Dunnett hoc tests.

[2] = tested on: L. major promastigote 5-ASKH substrain; experiment: In vitro activity against promastigotes, 5-ASKH; type: cell-based, Leishmania major; settings: Leishmania major
Description: (§2) L. major promastigotes LV39 (MRHO/SU/59/P) were obtained from João […] Preto Medical School- USP. L. major IOC/[…] promastigotes (MHOM/SU/1973/5-ASKH) were obtained from Leishmania collection of the Oswaldo Cruz Institute-Fiocruz. L. major promastigotes LV39 (MRHO/SU/59/P) and L. major IOC/[…] (MHOM/SU/1973/5-ASKH) were grown in a Schneider's medium (Sigma-Aldrich, St. […] The determination of the leishmanicidal activity of LASSBio-1491 against L. major promastigotes was carried out according to the methodology described by […] and colleagues (1996). […] After 48h of incubation in a Biochemical Oxygen Demand (B.O.D.) incubator, the promastigotes were counted using a hemocytometer. The results obtained were expressed as the mean ± S.E.M. of the number of promastigotes from triplicate cultures of representative assays, with the data analyzed by ANOVA and Dunnett hoc tests, considering a significance level of p < 0.05.

[3] = tested on: L. major promastigote LV39 substrain; experiment: In vitro activity against promastigotes, LV39; type: cell-based; settings: Leishmania major
Description: as §2

[4] = tested on: L. major amasitigote 5-ASKH substrain; experiment: In vitro activity against intramacrophage amastigotes, 5-ASKH; type: cell-based; settings: Leishmania major
Description: (§3) Briefly, female BALB/c mice (6 to 8 weeks old) received 1 mL sterile of 3% sodium thioglycolate by intraperitoneal route (i.p.) and were euthanized after 4 days. The intraperitoneal lavage was collected from the peritoneal cavity of mice using sterile PBS and cells were counted in a hemocytometer. Peritoneal adherent cells (macrophages) were plated at a concentration of 2 x 10^5 cells per well in 24-well culture plates containing glass coverslips. Subsequently, L. major promastigotes (harvested after the third passage) were added at a concentration of 2 x 10^6 parasites per well, aiming to infect the macrophages. […] After 24 hours in an incubator at 37 °C and 5% CO2, the coverslips were washed with PBS and stained with Giemsa-May Grünwald. The number of amastigotes in 100 macrophages was determined by counting using optical microscope (100x objective). Furthermore, the cell culture supernatant was also collected for nitrite measurement using the Griess reaction, an indirect way of determining the concentration of nitric oxide in the supernatant of infected macrophages from the experimental groups. The results obtained were expressed as the mean ± S.E.M. of the number of amastigotes or nitrite concentration from duplicate cultures of representative assays, with the data analyzed by ANOVA and Dunnett hoc tests, considering a significance level of p < 0.05. In addition, the linear regression analysis from the Kc values at employed concentrations was used to determine the IC50.

[5] = tested on: L. major amastigote LV39 substrain; experiment: In vitro activity against intramacrophage amastigotes, LV39; type: cell-based; settings: Leishmania major
Description: as §3

[6] = tested on: peritoneal macrophages infected with L. major LV39; experiment: Nitrite measurement (Griess reaction) in infected macrophages; type: cell-based, BALB/c mice; settings: BALB/c macrophages infected with L. major LV39
Description: as §3, with “In addition, the linear regression analysis from the Kc values at employed concentrations was used to determine the IC50.” left out

L. major LV39 = experiment: In vivo activity against Leishmania major LV39 substrain; parameters: species or system BALB/c mice; settings: LASSBio-1491 10 μmol/Kg/day, glucantime 30 μmol/Kg/day x 28 days, i.p.
Description: Thus, 6-week-old female BALB/c mice weighing approximately 20 g were used. […] Briefly, ketamine (80mg/kg) and xylazine (8 mg/kg) were simultaneously used to anesthetize the mice by intraperitoneal injection. The promastigotes of L. major LV39 substrain in the stationary phase, harvested after the third passage (obtained from parasites frozen), were inoculated subcutaneously at a concentration of 1x 10^5 parasites in the right ear of mice. […] The size of the lesions was measured using a pachymeter. Thiopental (150 mg/kg, i.p.) was used to euthanize the mice and the quantitative limiting-dilution assay was used to determine the parasite burden of infected ears and draining lymph nodes. The results obtained from experiments were expressed as the mean ± S.E.M. with the data analyzed (size of the lesions or parasite burden) by ANOVA and Dunnett hoc tests, considering a significance level of p < 0.05.

Compound: CC(C)NCC(O)COc1ccc(CC(N)=O)cc1 (stereo not drawn) [Atenolol]
Fa experimental (PAMPA-GIT permeability): 2.26%
Fa literature [1]: 5.2%

Compound: Cn1c(=O)c2c(ncn2C)n(C)c1=O [Caffeine, reference compound]
Papp (PAMPA-BBB permeability; PAMPA): 0.81 ×10⁻⁶ cm/s
Classification (PAMPA-BBB permeability): CNS -

Compound: N=C(N)c1ccc(OCCCCCOc2ccc(C(=N)N)cc2)cc1 [Pentamidine, reference compound]
IC50 (spleen cells): > 100 µM
IC50 ([2]; 48 h): 0.8 ± 0.1 µM
Emax ([2]; read-out: Maximum effect (% ± S.E.M.)): 72.6 ± 2%
IC50 ([3]; promastigote LV39, 48 h): 5.7 ± 0.2 µM
Emax ([3]; promastigote LV39, read-out: Maximum effect (% ± S.E.M.)): 88.1 ± 0.1%
IC50 ([4]; Macrophage, amastigote 5-ASKH in macrophages, 24 h): 17.1 ± 5.6 µM
Emax ([4]; amastigote 5-ASKH, read-out: Maximum effect (% ± S.E.M.)): 53.8 ± 1.1%
IC50 ([5]; Macrophage, amastigote LV39 in macrophages, 24 h): 8.1 ± 0.9 µM
Emax ([5]; amastigote LV39, read-out: Maximum effect (% ± S.E.M.)): 63.2 ± 2.9%
NO production (nitrite) [6]: did not

Compound: CNC(=C[N+](=O)[O-])NCCSCc1ccc(CN(C)C)o1 [Ranitidine]
Classification (PAMPA-GIT permeability): Medium (medium permeability (30–69%))
Fa experimental (PAMPA-GIT permeability): 38.29%

Compound: O=C(O)c1cc(/N=N/c2ccc(S(=O)(=O)Nc3ccccn3)cc2)ccc1O [Sulfasalazine]
Fa literature [1]: 42%
Pe literature [1]: 0.3 10^−6 cm s^-1

Compound: meglumine antimoniate [glucantime, reference compound]
lesion size (L. major LV39): reduced lesion size only between days 7 and 17
parasite load in draining lymph node (L. major LV39): reduce the parasite load
parasite load in infected ear (L. major LV39): reduce the parasite load

The next lines start with results.

Classification (PAMPA-GIT permeability): Low (low permeability (0–29%))
Fa experimental (PAMPA-GIT permeability): 1.70%
Compound: Nc1nc2c(ncn2COCCO)c(=O)[nH]1 [Acyclovir]

Classification (PAMPA-GIT permeability): Low (low permeability (0–29%))
Fa experimental (PAMPA-GIT permeability): 1.37%
Compound: CO/N=C(\C(=O)N[C@@H]1C(=O)N2C(C(=O)O)=C(CSc3nc(=O)c(=O)[nH]n3C)CS[C@H]12)c1csc(N)n1 [Ceftriaxone]
Fa literature [1]: 1%
Pe literature [1]: 0.1 10^−6 cm s^-1

Fa experimental (PAMPA-GIT permeability): 99.28%
Compound: O=C(O)Cc1ccccc1Nc1c(Cl)cccc1Cl [Diclofenac]
Classification (PAMPA-GIT permeability): High (high intestinal permeability (70–100%))
Fa literature [1]: 100%
Pe literature [1]: 12.5 10^−6 cm s^-1

Classification (PAMPA-BBB permeability): CNS -
Compound: CCn1cc(C(=O)O)c(=O)c2cc(F)c(N3CCNCC3)nc21 [Enoxacin, reference compound]

Papp (PAMPA-GIT permeability; PAMPA): 0.7 ×10⁻⁶ cm/s
Compound: CCn1cc(C(=O)O)c(=O)c2cc(F)c(N3CCNCC3)cc21 [Norfloxacin]
